Results on one molecule are retold here after ChEMBL document CHEMBL4043190 (Bioorg Med Chem Lett, 2017).

The target in data set [1] is Non-receptor tyrosine-protein kinase TYK2 (Homo sapiens, UniProt P29597). Description: Inhibition of TYK2 (unknown origin) assessed as reduction in IL-23 induced STAT3 phosphorylation by cell based ELISA.
Data set [2] has as its system Plasma. Description: Unbound drug concentration in IL-23/IL-1beta induced C57BL/6J mouse plasma at 100 mg/kg, po preincubated for 30 mins followed by cytokine addition measured after 3.5 hrs post dose. The format is ADME, organism-based. The settings on record: in vivo.
The target of data set [3] is Tyrosine-protein kinase JAK2 (Homo sapiens, UniProt O60674). Description: Inhibition of JAK2 (unknown origin) assessed as reduction in EPO-mediated STAT5 phosphorylation by cell based readout assay.
The nature of data set [4]: Ratio of unbound drug concentration in IL-23/IL-1beta induced C57BL/6J mouse plasma at 100 mg/kg, po to EC50 for TYK2 (unknown origin) assessed as inhibition of IL-23 induced STAT3 phosphorylation.
Data set [5] has as its system Mus musculus. Put plainly: Anti-inflammatory activity in IL-23/IL-1beta induced C57BL/6J mouse assessed as inhibition of IL-17F level in serum at 30 mg/kg, po pretreated for 30 mins followed by cytokine addition measured after 3 hrs by ELISA relative to control. The format is functional.
The target in data set [6] is Cyclin-dependent kinase 2 (Homo sapiens, UniProt P24941). The settings on record: 70 nM.
Data set [7] relates to Mus musculus. Put plainly: Anti-inflammatory activity in IL-23/IL-1beta induced C57BL/6J mouse assessed as inhibition of IL-17F level in serum pretreated po for 30 mins followed by cytokine addition measured after 3 hrs by ELISA. The format is functional, organism-based.
Data set [8] relates to Mus musculus. Put plainly: Antiinflammatory activity in IMQ-induced BALB/c mouse psoriasis model assessed as reduction in ear thickness at 100 mg/kg, po bid for 5 days meausred on day 6. Details: scale not given: the % may be the effect or the level left. It counts as functional.
For data set [9], the system named is Mus musculus. Description: Anti-inflammatory activity in IL-23/IL-1beta induced C57BL/6J mouse assessed as inhibition of IL-17F level in serum at 70 mg/kg, po pretreated for 30 mins followed by cytokine addition measured after 3 hrs by ELISA relative to control. It counts as functional. (In an ELISA, binding on a coated surface is turned into a signal by an enzyme label.)

Data set [10] has as its system Mus musculus. Description: Antiinflammatory activity in IMQ-induced BALB/c mouse model assessed as reduction in serum IL-17F production at 70 mg/kg, po bid for 5 days. It counts as functional. Details: scale not given: the % may be the effect or the level left.
Data set [11] relates to Mus musculus. Put plainly: Toxicity in IMQ-induced BALB/c mouse model assessed as reduction in platelet levels at 70 mg/kg, po bid for 5 days. It counts as organism-based. Details: scale not given: the % may be the effect or the level left. The settings on record: in vivo, 120 h.
Data set [12] deals with T1, Tyrosine-protein kinase JAK3 (Homo sapiens, UniProt P52333).
T1 sequence (P52333 whole entry): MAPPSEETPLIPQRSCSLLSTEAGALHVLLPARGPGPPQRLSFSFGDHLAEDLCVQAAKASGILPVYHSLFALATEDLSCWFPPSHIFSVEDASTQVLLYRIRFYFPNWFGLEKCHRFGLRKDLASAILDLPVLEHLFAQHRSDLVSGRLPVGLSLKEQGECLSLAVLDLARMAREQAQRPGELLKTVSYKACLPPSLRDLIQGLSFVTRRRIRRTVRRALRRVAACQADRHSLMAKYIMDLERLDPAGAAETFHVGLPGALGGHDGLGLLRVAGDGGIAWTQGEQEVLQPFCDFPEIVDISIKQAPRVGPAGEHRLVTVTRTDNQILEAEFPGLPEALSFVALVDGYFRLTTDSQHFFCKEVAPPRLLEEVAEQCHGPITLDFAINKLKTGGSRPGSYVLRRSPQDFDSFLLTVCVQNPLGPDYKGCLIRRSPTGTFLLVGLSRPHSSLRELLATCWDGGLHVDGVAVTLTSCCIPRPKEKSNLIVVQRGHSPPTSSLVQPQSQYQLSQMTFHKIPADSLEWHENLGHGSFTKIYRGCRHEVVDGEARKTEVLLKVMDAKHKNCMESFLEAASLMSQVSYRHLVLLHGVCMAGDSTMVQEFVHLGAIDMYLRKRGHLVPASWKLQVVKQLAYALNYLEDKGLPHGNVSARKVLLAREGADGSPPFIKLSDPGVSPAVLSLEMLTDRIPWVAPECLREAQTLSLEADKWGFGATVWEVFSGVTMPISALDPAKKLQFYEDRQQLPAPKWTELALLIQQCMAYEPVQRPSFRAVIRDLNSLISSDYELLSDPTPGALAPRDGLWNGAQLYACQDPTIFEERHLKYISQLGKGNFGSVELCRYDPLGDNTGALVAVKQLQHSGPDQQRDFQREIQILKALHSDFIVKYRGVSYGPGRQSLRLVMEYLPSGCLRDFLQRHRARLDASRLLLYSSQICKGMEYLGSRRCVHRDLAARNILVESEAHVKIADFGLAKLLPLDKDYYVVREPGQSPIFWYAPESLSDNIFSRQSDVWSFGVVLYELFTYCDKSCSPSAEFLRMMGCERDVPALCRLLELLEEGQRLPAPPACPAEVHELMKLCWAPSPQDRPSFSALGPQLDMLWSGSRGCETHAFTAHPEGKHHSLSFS
Description: Inhibition of JAK3 (unknown origin).

In data set [13] the test system is Plasma. Description: Unbound drug concentration in IL-23/IL-1beta induced C57BL/6J mouse plasma at 30 mg/kg, po preincubated for 30 mins followed by cytokine addition measured after 3.5 hrs post dose. The format is ADME, organism-based. As to conditions: in vivo.
Data set [14] has as its system Mus musculus. Description: Antiinflammatory activity in IMQ-induced BALB/c mouse psoriasis model assessed as reduction in ear thickness at 70 mg/kg, po bid for 5 days meausred on day 6. Set-up: scale not given: the % may be the effect or the level left. It counts as functional.

Structures are written as SMILES.

Non-receptor tyrosine-protein kinase TYK2, sequence (P29597 whole entry): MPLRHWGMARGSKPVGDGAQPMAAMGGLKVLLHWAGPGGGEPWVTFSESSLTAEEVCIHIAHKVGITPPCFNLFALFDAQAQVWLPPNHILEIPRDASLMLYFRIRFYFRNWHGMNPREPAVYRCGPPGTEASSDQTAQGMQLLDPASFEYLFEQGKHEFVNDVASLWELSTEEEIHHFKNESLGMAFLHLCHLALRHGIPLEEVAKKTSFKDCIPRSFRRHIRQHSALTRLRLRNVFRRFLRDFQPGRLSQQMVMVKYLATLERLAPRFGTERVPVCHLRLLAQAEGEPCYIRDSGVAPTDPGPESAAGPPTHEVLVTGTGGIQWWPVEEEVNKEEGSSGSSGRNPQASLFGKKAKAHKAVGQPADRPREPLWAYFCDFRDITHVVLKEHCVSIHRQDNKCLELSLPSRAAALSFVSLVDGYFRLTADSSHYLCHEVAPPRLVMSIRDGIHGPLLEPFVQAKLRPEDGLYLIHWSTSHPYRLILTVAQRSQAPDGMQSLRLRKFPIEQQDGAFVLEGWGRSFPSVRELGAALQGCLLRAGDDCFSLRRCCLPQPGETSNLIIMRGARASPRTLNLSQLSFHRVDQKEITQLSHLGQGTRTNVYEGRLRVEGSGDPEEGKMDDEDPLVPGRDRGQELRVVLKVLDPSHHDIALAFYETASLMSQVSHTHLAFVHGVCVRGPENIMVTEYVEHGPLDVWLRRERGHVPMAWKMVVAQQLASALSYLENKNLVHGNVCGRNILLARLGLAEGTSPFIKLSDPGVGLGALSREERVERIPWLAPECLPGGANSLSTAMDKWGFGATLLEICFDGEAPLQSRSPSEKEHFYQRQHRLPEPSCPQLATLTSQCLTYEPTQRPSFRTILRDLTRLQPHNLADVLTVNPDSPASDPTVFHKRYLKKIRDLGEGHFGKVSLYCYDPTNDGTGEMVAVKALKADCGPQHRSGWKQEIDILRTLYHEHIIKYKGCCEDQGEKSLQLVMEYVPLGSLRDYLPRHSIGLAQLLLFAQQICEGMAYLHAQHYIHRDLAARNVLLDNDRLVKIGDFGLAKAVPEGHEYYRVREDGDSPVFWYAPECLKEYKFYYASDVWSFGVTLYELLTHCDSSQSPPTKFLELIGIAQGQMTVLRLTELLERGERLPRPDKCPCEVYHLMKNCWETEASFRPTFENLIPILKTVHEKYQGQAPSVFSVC
Tyrosine-protein kinase JAK2, sequence (O60674 whole entry): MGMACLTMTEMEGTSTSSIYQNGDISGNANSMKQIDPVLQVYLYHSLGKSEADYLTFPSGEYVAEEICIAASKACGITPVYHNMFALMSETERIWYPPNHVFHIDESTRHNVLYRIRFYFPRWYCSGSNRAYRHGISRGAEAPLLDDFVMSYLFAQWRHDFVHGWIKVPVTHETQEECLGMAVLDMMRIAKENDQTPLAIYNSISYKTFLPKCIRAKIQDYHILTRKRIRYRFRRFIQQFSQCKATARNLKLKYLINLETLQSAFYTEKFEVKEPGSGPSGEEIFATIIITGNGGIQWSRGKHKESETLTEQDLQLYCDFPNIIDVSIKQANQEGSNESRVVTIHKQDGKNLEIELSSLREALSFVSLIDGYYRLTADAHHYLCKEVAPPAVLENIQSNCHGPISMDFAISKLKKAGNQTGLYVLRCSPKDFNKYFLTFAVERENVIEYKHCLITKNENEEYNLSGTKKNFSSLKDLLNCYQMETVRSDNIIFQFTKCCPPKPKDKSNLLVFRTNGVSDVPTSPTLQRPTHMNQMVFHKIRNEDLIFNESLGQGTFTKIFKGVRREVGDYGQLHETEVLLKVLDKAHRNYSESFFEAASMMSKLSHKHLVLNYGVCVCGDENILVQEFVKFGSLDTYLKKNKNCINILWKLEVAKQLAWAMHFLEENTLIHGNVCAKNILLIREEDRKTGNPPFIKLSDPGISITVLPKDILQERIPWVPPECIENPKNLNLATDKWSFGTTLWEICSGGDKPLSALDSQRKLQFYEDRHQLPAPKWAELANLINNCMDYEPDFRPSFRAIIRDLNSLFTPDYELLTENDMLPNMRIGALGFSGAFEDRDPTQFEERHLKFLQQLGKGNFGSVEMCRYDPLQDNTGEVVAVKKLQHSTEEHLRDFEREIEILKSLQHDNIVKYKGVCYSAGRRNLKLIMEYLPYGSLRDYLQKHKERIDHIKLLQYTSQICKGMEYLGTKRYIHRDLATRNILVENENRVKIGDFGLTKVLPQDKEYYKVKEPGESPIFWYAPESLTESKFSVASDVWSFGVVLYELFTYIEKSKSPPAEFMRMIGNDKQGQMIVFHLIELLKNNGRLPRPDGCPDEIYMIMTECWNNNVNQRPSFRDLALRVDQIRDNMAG

In the case of `Cc1cc(Nc2nccc3nc(-c4c(Cl)cc(C#N)cc4Cl)[nH]c23)ncn1`, the EC50 (usually the concentration needed to bring the measured effect to its halfway point) in data set [1] was 66 nM; in data set [3] it was 1400 nM. For the same molecule, the “Cp(f)” value in data set [2] came to 2.6 µM; in data set [13], 0.86 µM. For the same molecule, the Ratio in data set [4] is 39. For the same molecule, the inhibition in vivo – broadly, the change of the read-out against control, counted positive when it falls – at 30 mg/kg in data set [5] came out at 30%. Further, the inhibition (as a rule, the change of the read-out against control, counted positive when it falls) in data set [6] is above 50%; in data set [7], “Dose-dependent effect”. In addition, the Activity stood at 82% in [8], 100% in [10], 55% in data set [11] and 78% in data set [14]. In addition, in data set [9], the inhibition in vivo at 70 mg/kg came to 72%. Besides, the Ki (commonly the dissociation constant of the complex between target and ligand, obtained from inhibition or displacement) in [12] was determined as 58 nM.
